# Reference: US20130324543A1, “REVERSAL OF HIGH BREAST CANCER RISK IN MAMMALS EXPOSED TO ESTROGENIC CHEMICALS IN UTERO BY ADULT EXPOSURE TO HDAC AND DNMT INHIBITORS” (Georgetown University, priority 2012, published 2013)
# “Also recorded” adds a separate entry of the source.
# What was measured:
# mammary tumors [1] = assay: MPA/DMBA mammary tumorigenesis in mice exposed in utero to EE2, GEN or BPA (Example 5); type: in vivo, C57BL/6 mice; details: mouse, in vivo
# From the text: Additions to the basic diet were as follows: 1) cornstarch [control]; 2) EE2 0.1 ppm; 3) BPA 0.155 ppm; 4) GEN 500 ppm.
# [2] = Immediate adverse effects of dietary exposure in adult non-pregnant littermates of dams; type: in vivo, mice; details: last day of dietary exposure, data not shown
# Method: For ethical reasons non-pregnant littermate females were used for blood collection instead of the dams, and the samples were taken on the last day of their dietary exposure. Blood was collected by heart puncture of anesthetized mice prior to euthanasia, and serum was separated by centrifugation (1000×g for 10 min) and stored frozen until hormone measurements.
# In addition, possible immediate adverse effects of EE2, BPA and GEN exposure for adult mice were evaluated using the non-pregnant littermates of dams. Their body weights were recorded and the mammary gland morphology examined on the last day of their dietary exposure.
# [3] = Litter size and pup weight in F1-F3 rat generations; type: in vivo, Sprague-Dawley rats; details: diet of the F0 dams; any of the three generations
# Method: Pregnant dams were weighed once a week to monitor changes in weight gain. The birth weight of pups and number of pups per litter were recorded. To avoid litter-effect, pups were crossfostered 1-2 days after dams gave birth. Pups from 2-4 dams were pooled and housed in a litter of 8-10 pups per nursing dam (which had the same dietary/hormonal exposure during pregnancy as the pups' mothers). All pups were weaned on postnatal day 21.
# mammary tumors [4] = assay: MPA/DMBA-induced mammary tumorigenesis in mice exposed in utero to EE2 or GEN, with or without adult HDAC+DNMT inhibitors; details: mouse, in vivo
# Method: Time pregnant C57BL/6 female mice were obtained from Harlan (Harlan-Teclad, USA) on gestation day 6, and were randomly assigned into three groups on the following day (gestation day 7). The basic diet formulation in the study was a semi-purified AIN93G (the American Institute of Nutrition) modified to replace soy oil for corn oil; all the diets of the three treatment groups were also purchased from Harlan. The diets were isocaloric, as ethinyl estradiol (EE2) or genistein (GEN) were added in the diet at the expense of comstarch. Additions to the basic diet were as follows: 1) EE2 0.1 ppm, and 2) GEN 500 ppm. EE2 was purchased from Sigma Chemicals (St. Louis, Mo., USA), and GEN was a gift from Dr. William Helferich (University of Illinois, Urbana, Ill., USA).
# The pregnant dams were fed these diets until the day of the delivery of their pups (Post Natal Day 0, PND 0). Starting on PND 0, all mice were fed the control diet until the end of the study. Female mice born from the dams fed with the different above mentioned diets were used in the subsequent studies. For study outline, see FIG. 12. Animals were housed in a temperature- and humidity-controlled room under a 12-hour light-dark cycle. All animal procedures were approved by the Georgetown University Animal Care and Use Committee, and the experiments were performed following the National Institutes of Health guidelines for the proper and humane use of animals in biomedical research.
# Mammary tumors were induced by administration of a subcutaneous injection of Medroxyprogesterone Acetate (MPA) to mice at 6 weeks of age, followed by administration of 1 mg 7,12-dimethylbenz(a)anthracene (DMBA) (Sigma, St. Louis, Mo.) weekly for four weeks (weeks 7, 8, 9, 10) (23). The carcinogen was dissolved in corn oil and administered by oral gavage in a volume of ca. 0.1 ml.
# One week after the last dose of DMBA was administered, some of the mice were started on hydralazine (5 mg/kg/day) and valproic acid treatments (1.16 g/kg/day) treatments.
# The two compounds were given in a drinking water, which was prepared fresh twice a week. The doses were chosen based on the literature (24-26). The number of animals in each group is as follows: Control n=18, Control given HDAC+DNMT inhibitors n=9, EE2 n=9, EE2 given HDAC+DNMT inhibitors n=6, GEN n=14, and GEN given HDAC+DNMT inhibitors n=8.
# Mice were examined for mammary tumors by palpation once per week. Tumor growth was monitored for 16 weeks after the last dose of DMBA administration. During the follow-up, animals in which tumor burden approximated 10% of total body weight were euthanized, as required by the ethical guidelines of our institution. All surviving animals were sacrificed at that point for sample collection. The end-points for tumor data analysis were (i) latency to tumor appearance, (ii) the number of animals with tumors (tumor incidence), and (iii) the cumulative tumor area (tumor burden). The latter was achieved by adding the total tumor area per group each week and dividing it with the number of mice in the group.
# (§1) Mammary tumor latency was compared with the final tumor burden in utero EE2 and GEN exposed mice to control mice, and in utero EE2 and GEN exposed mice to control mice exposed to HDAC+DNMT inhibitors separately; analysis was done using one-way ANOVA. Cumulative tumor burden during 16 weeks of tumor monitoring in the three groups, separately in those mice not given HDAC+DNMT inhibitors and those treated with the epigenetic drugs, was analysed using repeated measures one-way ANOVA. Log rank analysis was performed to compare mammary tumor incidence in the control and in utero EE2 and GEN exposed mice, again separately in those mice not given HDAC+DNMT inhibitors and those treated with the epigenetic drugs. Data for changes in DNMT1 expression among the groups in the mammary glands and tumors were assessed using two-way ANOVA, followed by Fisher LSD test
# miRNAs = assay: miRNA expression in adult mammary glands of in utero exposed rats; type: in vivo
# Method: Since several miRNAs are known to be suppressed by E2 in MCF-7 human breast cancer cells (Maillot et al. Cancer Res 2009), we determined whether persistent changes in miRNA expression may be seen in the adult mammary glands of rats exposed to E2 in utero. miRNAs were measured using applied Biosystems TaqManR Array Rodent MicroRNA.
# DNMT1 = DNMT1 mRNA expression (qRT-PCR) in mouse mammary glands and tumors; type: in vivo; details: in utero exposure vs control mice
# From the text: Total RNA was extracted using an RNeasy lipid mini kit (Qiagen, CA), according to manufacturer's instructions. One […] of total RNA per sample was used as a template for oligo-dT primed cDNA synthesis with a Supterscript reverse transcriptase, using Taqman Reverse Transcription kit (Applied Biosystems, CA). The cDNA samples served then as templates for quantitative real time PCR analysis with specific primers for the target gene using QuantiTect SYBR green PCR kit (Qiagen Inc., Valencia, Calif.) and an ABI Prism 7900 Sequence Detection System. Each sample was run in triplicate on a 384-well plate, and the qPCR run was repeated twice. The Ct values were averaged from the triplicates for each sample. To normalize the target gene expression the ratio to control RNA was calculated, i.e. the averages of the Ct triplicates from the Dnmt1 gene were divided by the average of the triplicates from the 18S gene. To determine the fold change of the target gene expression the results are presented as 2^ΔCt, where ΔCt=CT^target−Ct^18S.
# The primer sequences for m18S rRNA were as previously published by Wang et al. (27).
# as §1
structure (smiles),measurement,setting,value
"C#C[C@]1(O)CC[C@H]2[C@@H]3CCc4cc(O)ccc4[C@H]3CC[C@@]21C [EE2, ethinyl estradiol]",mammary tumorigenesis (onset of tumor growth and cumulative tumor burden),mammary tumors [1],Enhanced mammary tumorigenesis
same,body weight or mammary epithelial development,[2],No significant differences
same,litter size or pups weight,[3],did not affect
same,Final tumor burden per mouse,mammary tumors [4],significantly higher
same,Mammary tumor incidence,mammary tumors [4],significantly higher
same,mammary tumorigenesis,mammary tumors [4],increased mammary tumorigenesis
same,"expression of miR-26a, miR-101, miR-148, miR-152, miR-194, miR-26a/b",miRNAs; mammary glands of rats exposed in utero,suppressed
same,expression of several miRNAs in the mammary gland,miRNAs; maternal exposure,permanent down-regulation
same,DNMT1 expression in mammary tumors,DNMT1,significantly lower
same,expression of DNMT1 in mammary glands,DNMT1,an increase in the expression of DNMT1; also recorded: persistent up-regulation
